Series [1] has as its system ENTEROBACTER AEROGENES ATCC 13048. Nature of the series: In vitro antibacterial activity, agar dilution MIC (BHIA). The following applies: BHI agar. Type of series: cell-based.
The test system of series [2] is STREPTOCOCCUS AGALACTIAE CMX 508. The series is described as above. The format is cell-based. Conditions: BHI agar.
Series [3] deals with KLEBSIELLA PNEUMONIAE ATCC 8045. The description is as above. The format is cell-based. Conditions: BHI agar.
For series [4], the system named is PSEUDOMONAS AERUGINOSA A5007. The series is described as above. Type of series: cell-based. The following applies: BHI agar.
Series [5] relates to STREPTOCOCCUS PYOGENES EES61. The series is described as above. The format is cell-based. Conditions: BHI agar.
The test system of series [6] is PSEUDOMONAS AERUGINOSA BMH10. Described as above. Type of series: cell-based. Conditions: BHI agar.
In series [7] the test system is ENTEROCOCCUS FAECIUM ATCC 8043. The description is as above. The format is cell-based. Conditions: BHI agar.
Series [8] concerns MICROCOCCUS LUTEUS ATCC 4698. The description is as above. The following applies: BHI agar. The format is cell-based.
The next series deals with PSEUDOMONAS CEPACIA 2961. The series is described as above. The format is cell-based. The following applies: BHI agar.
Series [9] relates to MICROCOCCUS LUTEUS ATCC 9341. The description is as above. Type of series: cell-based. The following applies: BHI agar.
Series [10] relates to STREPTOCOCCUS BOVIS A5169. The description is as above. The format is cell-based. Conditions: BHI agar.
In series [11] the test system is STREPTOCOCCUS PYOGENES 2548 INDUC. Described as above. Conditions: BHI agar. Type of series: cell-based.
Series [12] concerns STREPTOCOCCUS PYOGENES 930 CONST. The description is as above. Type of series: cell-based. Conditions: BHI agar.
Another series relates to ACINETOBACTER SP CMX 669. The description is as above. The following applies: BHI agar. Type of series: cell-based.
Series [13] has as its system PSEUDOMONAS AERUGINOSA K799/61. Described as above. The format is cell-based. The following applies: BHI agar.
Series [14] relates to PROVIDENCIA STUARTII CMX 640. The series is described as above. Type of series: cell-based. Conditions: BHI agar.
The test system of a further series is ESCHERICHIA COLI H560. The series is described as above. Type of series: cell-based. Conditions: BHI agar. The text has this:
(§1) The MIC results are in μg/ml.

The next series has as its system ESCHERICHIA COLI DC-2. The series is described as above. Type of series: cell-based. The following applies: BHI agar.
Text: as §1

A further series deals with ESCHERICHIA COLI SS. The series is described as above. Type of series: cell-based. The following applies: BHI agar.
Text: as §1

A further series relates to ESCHERICHIA COLI JUHL. Described as above. The format is cell-based. The following applies: BHI agar.
The subject of series [15] is PSEUDOMONAS AERUGINOSA K799/WT. The description is as above. The format is cell-based. Conditions: BHI agar.
The next series has as its system ESCHERICHIA COLI KNK 437. Described as above. Type of series: cell-based. Conditions: BHI agar.
A further series relates to P. Aeruginosa A5007. Nature of the series: Acute mouse protection test. The format is in vivo. The following applies: mice infected intraperitoneally with P. Aeruginosa A5007, dosed at 1 and 5 hours post-infection.
A further series concerns Stap. Aureus NCTC 10649. Nature of the series: Acute mouse protection test. The format is in vivo. The following applies: mice infected intraperitoneally with Stap. Aureus NCTC 10649, dosed at 1 and 5 hours post-infection.
The subject of another series is E. Coli Juhl. Nature of the series: Acute mouse protection test. Conditions: mice infected intraperitoneally with E. Coli JUHL, dosed at 1 and 5 hours post-infection. The format is in vivo.
The nature of series [16]: Aqueous solubility (water and pH 7.4). The following applies: the sign > refers to an approximate value, solubility may be within 10% higher.
Where [17] appears, read: STREPTOCOCCUS AGALACTIAE CMX 508.

Values after ≈ are worked out from the molar mass of the structure shown.

Take “7-[3-Norvaline-amino-1-pyrrolidinyl]-1-(2,4-difluoro-phenyl)- 6-fluoro-1,4-dihydro-4-oxo-1,8-naphthyridine-3-carboxylic acid hydrochloride [Example 2b]”: the MIC was 3.1 µg/mL in series [1]; 1.56 µg/mL in [2] (setting [17]); “.39 µg/mL” in series [3]; 12.5 µg/mL in [4]; 1.56 µg/mL in [5] (STREPTOCOCCUS PYOGENES EES61); 6.2 µg/mL in series [6]. Moreover, the MIC result in [7] (ENTEROCOCCUS FAECIUM ATCC 8043) is “.78 µg/mL”; in series [8], 25 µg/mL; in the series with PSEUDOMONAS CEPACIA 2961 it was 50 µg/mL; in series [9] it was 25 µg/mL; in [10] (STREPTOCOCCUS BOVIS A5169), 1.56 µg/mL; in series [11], “.39 µg/mL”. The MIC result is “.78 µg/mL” in [12]; 3.1 µg/mL against ACINETOBACTER SP CMX 669; “.39 µg/mL” in series [13]; 50 µg/mL in series [14]; “.78 µg/mL” against ESCHERICHIA COLI H560; 12.5 µg/mL with ESCHERICHIA COLI DC-2. Further, the MIC result with ESCHERICHIA COLI SS is “.02 µg/mL”; against ESCHERICHIA COLI JUHL, “.78 µg/mL”; in series [15], 6.2 µg/mL; with ESCHERICHIA COLI KNK 437 it was 6.2 µg/mL.

Regarding `Cl.NCC(=O)N[C@@H](Cc1ccccc1)C(=O)NC1CCN(c2nc3c(cc2F)c(=O)c(C(=O)O)cn3-c2ccc(F)cc2F)C1` (stereo partly drawn) [Example 1b, 7-[(3-Gly-L-Phe-amino)-1-pyrrolidinyl]-1-(2,4-difluorophenyl)-6-fluoro-1,4-dihydro-4-oxo-1,8-naphthyridine-3-carboxyli c acid hydrochloride], the MIC in series [1] is 12.5 µg/mL; in series [2] (STR[…] 508), 1.56 µg/mL; in series [3], 12.5 µg/mL; in series [4], 25 µg/mL; in series [5] (STR[…] EES61) it was 1.56 µg/mL; in series [6], 25 µg/mL. Besides, the MIC in [7] (EN[…] ATCC 8043) was 1.56 µg/mL; in series [8], “.78 µg/mL”; with PSEUDOMONAS CEPACIA 2961 it was 50 µg/mL; in series [9] it was 6.25 µg/mL; in series [10] (STR[…] A5169) it was 1.56 µg/mL; in series [11], “.78 µg/mL”. Also, the MIC result in [12] is “.78 µg/mL”; against ACINETOBACTER SP CMX 669, 12.5 µg/mL; in [13], 12.5 µg/mL; in series [14], 100 µg/mL; against ESCHERICHIA COLI H560 it was 1.56 µg/mL; in the series on ESCHERICHIA COLI DC-2, 100 µg/mL. Moreover, the MIC result was “.2 µg/mL” in the series on ESCHERICHIA COLI SS, 3.12 µg/mL against ESCHERICHIA COLI JUHL, 25 µg/mL in series [15] and 25 µg/mL against ESCHERICHIA COLI KNK 437. Also, the “Oral (ED50)” value in the series with P. Aeruginosa A5007 turned out to be 27.3 mg/kg/day; with Stap. Aureus NCTC 10649, 0.7 mg/kg/day; with E. Coli Juhl it was 1.8 mg/kg/day.

On to `NC(Cc1ccccc1)C(=O)NC1CCN(c2nc3c(cc2F)c(=O)c(C(=O)O)cn3-c2ccc(F)cc2F)C1` (stereo not shown) [Example 5], for which the MIC in [2] (setting [17]) was 3.1 µg/mL (≈ 5.62 µM); in [4] it was 50 µg/mL (≈ 90.7 µM); in series [5] (STREPTOCOCCUS PYOGENES EES61), 3.1 µg/mL (≈ 5.62 µM); in [6], 25 µg/mL (≈ 45.3 µM); in [7] (ENTEROCOCCUS FAECIUM ATCC 8043), 3.1 µg/mL (≈ 5.62 µM); in the series with PSEUDOMONAS CEPACIA 2961, over 100 µg/mL. For the same compound, the MIC in series [9] was 25 µg/mL (≈ 45.3 µM); in [10] (STREPTOCOCCUS BOVIS A5169) it was 6.2 µg/mL (≈ 11.2 µM); in series [11], “.78 µg/mL”; in [14], over 100 µg/mL; against ESCHERICHIA COLI H560, 3.1 µg/mL (≈ 5.62 µM); against ESCHERICHIA COLI DC-2, 50 µg/mL (≈ 90.7 µM). Moreover, the MIC result in the series with ESCHERICHIA COLI SS is “.1 µg/mL”; with ESCHERICHIA COLI JUHL, 3.1 µg/mL (≈ 5.62 µM); in series [15] it was 25 µg/mL (≈ 45.3 µM); with ESCHERICHIA COLI KNK 437, 100 µg/mL (≈ 181 µM). Moreover, the “Oral (ED50)” value is reported as 3.6 mg/kg/day with Stap. Aureus NCTC 10649 and 3.5 mg/kg/day with E. Coli Juhl.

With `CC(N)C(=O)NC(C)C(=O)NC1CCN(c2nc3c(cc2F)c(=O)c(C(=O)O)cn3-c2ccc(F)cc2F)C1` (stereo not shown) [Example 15], the MIC in [1] is 25 µg/mL (≈ 45.7 µM); in [4], 100 µg/mL (≈ 183 µM); in series [6] it was 100 µg/mL (≈ 183 µM); in series [7] (ENTEROCOCCUS FAECIUM ATCC 8043), 50 µg/mL (≈ 91.5 µM); in series [8] it was 100 µg/mL (≈ 183 µM); against PSEUDOMONAS CEPACIA 2961 it was 50 µg/mL (≈ 91.5 µM). Further, the MIC in series [9] was over 100 µg/mL; in [10] (STREPTOCOCCUS BOVIS A5169) it was 50 µg/mL (≈ 91.5 µM); in series [13], 3.1 µg/mL (≈ 5.67 µM); in series [14], 100 µg/mL (≈ 183 µM); against ESCHERICHIA COLI H560 it was 6.2 µg/mL (≈ 11.3 µM); in the series with ESCHERICHIA COLI DC-2 it was 100 µg/mL (≈ 183 µM). Moreover, the MIC result against ESCHERICHIA COLI SS was “.39 µg/mL”; in series [15], 50 µg/mL (≈ 91.5 µM); with ESCHERICHIA COLI KNK 437, 50 µg/mL (≈ 91.5 µM). Further, the results for the “Oral (ED50)” value in the series on P. Aeruginosa A5007, in the series on Stap. Aureus NCTC 10649 and in the series with E. Coli Juhl were 9.1 mg/kg/day, 1.3 mg/kg/day and 2.0 mg/kg/day, respectively.

On to `CCC[C@H](NC(=O)[C@H](C)N)C(=O)NC1CCN(c2nc3c(cc2F)c(=O)c(C(=O)O)cn3-c2ccc(F)cc2F)C1` (stereo partly shown) [Example 55b, 7-(3-Ala-Nval-amino-1-pyrrolidinyl)-6-fluoro-1-(2,4-difluorophenyl)-1,4-di hydro-4-oxo-1,8-naphthyridine-3-carboxylic acid], for which, in series [16], the “Water Solubility” value was determined as 26 mg/mL.

With `NC1CCN(c2nc3c(cc2F)c(=O)c(C(=O)O)cn3-c2ccc(F)cc2)C1` (stereo not shown) [compound A, 7-(3-amino-1-pyrrolidinyl)-6-fluoro-1-(4-fluorophenyl)-1,4-dihydro-4-oxo-1 ,8-naphthyridine-3-carboxylic acid, reference compound], the “Water Solubility” value in [16] was 1.4 mg/mL.

These data come from patent publication US5057523A, “Dipeptide quinolone derivatives” (Abbott Laboratories, priority 1989, dated 1991).
